Five molecules from publication PMC9217576, “Urease and α-Chymotrypsin Inhibitory Activities and Molecular Docking Studies of Alkaloids Isolated from Medicinal Plant Isatis minima Bunge” (Evidence-based Complementary and Alternative Medicine : eCAM, 2022) can be followed below.

Holding throughout (format): biochemical
The target in test [1] is Bacillus pasteurii urease (Sporosarcina pasteurii, UniProt P41020). Briefly: In vitro urease inhibition assay (indophenol method). Conditions: for IC50: SEM of five determinations, pH 6.8, 30°C.
Another test concerns the target α-chymotrypsin (Bos taurus, UniProt P00766). Put plainly: In vitro chymotrypsin inhibition assay. Conditions: for IC50: SEM of five determinations, Tris-HCl pH 7.6, 25°C.
In another test the target is Jack bean urease (Canavalia ensiformis, UniProt P07374). Put plainly: biochemical. Conditions: for IC50: SEM of five determinations, pH 6.8, 30°C.
Setting [2] is: read-out: Urease IC50 ± SEM (Bacillus pasteurii urease).
Where [3] appears, read: Urease IC50 ± SEM (Jack bean urease).
[4] abbreviates: Urease IC50 ± SEM (Bacillus pasteurii urease).

Where two headings read alike, the source gives them in different places.

Chain of Bacillus pasteurii urease (P41022 whole entry): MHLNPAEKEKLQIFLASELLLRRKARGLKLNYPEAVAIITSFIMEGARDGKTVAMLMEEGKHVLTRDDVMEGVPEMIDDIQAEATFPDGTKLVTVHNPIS
Chain of Bacillus pasteurii urease (P41020 whole entry): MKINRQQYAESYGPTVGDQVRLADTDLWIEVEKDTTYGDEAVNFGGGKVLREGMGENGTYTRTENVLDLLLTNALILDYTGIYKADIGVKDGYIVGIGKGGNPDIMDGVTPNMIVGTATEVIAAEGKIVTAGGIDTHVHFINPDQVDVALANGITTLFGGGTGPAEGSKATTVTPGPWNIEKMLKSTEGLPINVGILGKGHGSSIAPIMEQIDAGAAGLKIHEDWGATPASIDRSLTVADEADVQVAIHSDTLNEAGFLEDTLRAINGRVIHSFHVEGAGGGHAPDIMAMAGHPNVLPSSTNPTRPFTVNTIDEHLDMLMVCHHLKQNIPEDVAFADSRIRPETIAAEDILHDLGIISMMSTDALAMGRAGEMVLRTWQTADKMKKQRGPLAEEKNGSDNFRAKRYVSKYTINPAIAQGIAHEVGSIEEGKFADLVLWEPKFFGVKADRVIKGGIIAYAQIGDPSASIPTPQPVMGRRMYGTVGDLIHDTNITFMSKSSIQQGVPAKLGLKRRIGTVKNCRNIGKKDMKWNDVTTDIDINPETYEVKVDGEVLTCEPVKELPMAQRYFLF
Chain of Bacillus pasteurii urease (P41021 whole entry, further chain): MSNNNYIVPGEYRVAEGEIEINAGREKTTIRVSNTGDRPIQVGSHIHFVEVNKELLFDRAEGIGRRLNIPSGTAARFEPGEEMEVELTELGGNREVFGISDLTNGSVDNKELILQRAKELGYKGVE
Chain of Jack bean urease (P07374 whole entry, looked up): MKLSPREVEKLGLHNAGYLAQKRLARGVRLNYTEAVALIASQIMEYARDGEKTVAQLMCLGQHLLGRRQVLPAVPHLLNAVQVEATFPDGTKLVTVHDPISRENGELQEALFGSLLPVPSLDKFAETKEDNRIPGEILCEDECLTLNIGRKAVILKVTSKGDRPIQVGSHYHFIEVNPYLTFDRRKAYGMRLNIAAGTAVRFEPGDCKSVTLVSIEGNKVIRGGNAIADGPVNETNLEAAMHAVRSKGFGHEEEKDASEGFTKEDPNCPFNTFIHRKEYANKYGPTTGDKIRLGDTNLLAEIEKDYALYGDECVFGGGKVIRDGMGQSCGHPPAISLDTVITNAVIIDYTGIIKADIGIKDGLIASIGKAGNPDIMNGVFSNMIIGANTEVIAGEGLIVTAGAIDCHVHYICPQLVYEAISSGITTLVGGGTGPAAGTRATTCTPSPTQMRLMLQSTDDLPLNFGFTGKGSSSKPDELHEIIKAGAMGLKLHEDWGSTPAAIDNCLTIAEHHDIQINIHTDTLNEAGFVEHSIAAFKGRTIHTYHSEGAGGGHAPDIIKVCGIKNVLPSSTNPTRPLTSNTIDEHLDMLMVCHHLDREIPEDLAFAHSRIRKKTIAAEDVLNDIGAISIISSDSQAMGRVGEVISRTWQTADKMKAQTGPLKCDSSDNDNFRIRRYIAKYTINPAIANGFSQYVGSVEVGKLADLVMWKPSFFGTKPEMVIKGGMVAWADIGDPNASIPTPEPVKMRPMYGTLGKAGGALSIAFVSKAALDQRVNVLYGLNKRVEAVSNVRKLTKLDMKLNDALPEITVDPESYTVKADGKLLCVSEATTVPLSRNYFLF

With `O=C1C(c2[nH]c3ccccc3c2C2=c3ccccc3=N/C2=C2\Nc3ccccc3C2=O)=Nc2ccccc21` [Bisindigotin], the “inhibitory activity against Bacillus pasteurii urease (in words)” value in test [1] is given as “significant inhibitory activity”. The IC50 worked out at 42.04 ± 0.07 µM in test [1] (setting [2]), 34.01 ± 0.07 µM against α-chymotrypsin and 58.15 ± 0.02 µM on Jack bean urease (setting [3]). Also, the “inhibitory potential against α-chymotrypsin (in words)” value at α-chymotrypsin is “moderate inhibitory potential”. Moreover, the “inhibitory activity against Jack bean urease (in words)” value against Jack bean urease is “significant inhibitory activity”.
Turning to `O=C1/C(=c2\c3ccccc3n3c(=O)c4ccccc4nc23)Nc2ccccc21` [Candidine], the “inhibitory activity against Bacillus pasteurii urease (in words)” value in test [1] is “significant inhibitory activity”. Moreover, the IC50 in test [1] (setting [4]) amounted to 46.12 ± 0.05 µM; against α-chymotrypsin, 44.07 ± 0.04 µM. The “inhibitory potential against α-chymotrypsin (in words)” value on α-chymotrypsin is “moderate inhibitory potential”.
On to `COc1cc(C2c3c(c4ccccc4[nH]c3=O)C(=O)N3CCCC23)cc(OC)c1O` (stereo not shown) [Isaindigotidione], for which the IC50 in test [1] (setting [2]) was 20.04 ± 0.09 µM; at α-chymotrypsin, 16.09 ± 0.07 µM; at Jack bean urease (setting [3]), 29.03 ± 0.04 µM.
Regarding `COc1cc(/C=C2\CCn3c2nc2ccccc2c3=O)cc(OC)c1O` [Isaindigotone], the IC50 amounted to 26.13 ± 0.08 µM in test [1] (setting [2]), 29.03 ± 0.04 µM in test [1] (setting [4]), 22.01 ± 0.06 µM at α-chymotrypsin and 34.03 ± 0.07 µM at Jack bean urease (setting [3]).
Turning to `NC(N)=S` [Thiourea, reference compound], the IC50 in test [1] (setting [2]) was 14.03 ± 0.08 µM; at Jack bean urease (read-out: Urease IC50 ± SEM (Jack bean urease)) it was 18.04 ± 0.01 µM.

For orientation: IC50 means the point on the concentration scale where inhibition reaches its midpoint.
